Drawing on patent US9284333B2, “Fused pyrroledicarboxamides and their use as pharmaceuticals” (SANOFI, priority 2012, dated 2016), this text covers inhibition and IC50 for 12 molecules.

pIC50: −log10 of the molar value.

In one assay the target is Human TASK-1 channels (Homo sapiens (Human), UniProt O14649). Kind of assay: Determination of the activity on the TASK-1 channel in Xenopus oocytes (two-microelectrode voltage clamp). The class given is cell-based. The settings on record: compound concentration 5 μM. The gist of the method: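 Current during 500 ms pulses to 40 mV from a −90 mV hold was recorded in oocytes expressing human TASK-1 for two days after cRNA injection. Compounds were added cumulatively to the ND96 bath (pH 7.4, room temperature). IC50 came from dose-response fitting of inhibition relative to pre-compound current.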
Human TASK-1 channels, sequence (O14649 whole entry): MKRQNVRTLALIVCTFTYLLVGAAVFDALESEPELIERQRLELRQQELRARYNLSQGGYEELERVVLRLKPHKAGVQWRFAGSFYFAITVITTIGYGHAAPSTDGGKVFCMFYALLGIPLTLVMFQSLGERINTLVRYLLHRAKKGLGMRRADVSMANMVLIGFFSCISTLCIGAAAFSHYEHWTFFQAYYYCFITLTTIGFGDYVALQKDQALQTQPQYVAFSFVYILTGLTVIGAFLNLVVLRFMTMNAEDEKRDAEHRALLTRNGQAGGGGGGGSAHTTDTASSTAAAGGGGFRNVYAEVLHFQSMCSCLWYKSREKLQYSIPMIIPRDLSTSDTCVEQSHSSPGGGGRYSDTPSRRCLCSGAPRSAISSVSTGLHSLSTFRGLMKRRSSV
`CC(C)[C@@H](NC(=O)c1cc(C(=O)N2CCC[C@@H]2C)c2n1CCOC2)c1ccc(C#N)nc1` [16nm, 8-((S)-2-Methyl-pyrrolidine-1-carbonyl)-3,4-dihydro-1H-pyrrolo[2,1-c][1,4]oxazine-6-carboxylic acid [(R)-1-(6-cyano-pyridin-3-yl)-2-methyl-propyl]-amide]: the inhibition (usually the relative decrease from the control value, in per cent) at 5 µM was 77%.

`CC[C@@H](NC(=O)c1cc(C(=O)N2CCC[C@@H]2C)n2c1COCC2)c1ccc(C)cc1` [16be, 6-((S)-2-Methyl-pyrrolidine-1-carbonyl)-3,4-dihydro-1H-pyrrolo[2,1-c][1,4]oxazine-8-carboxylic acid ((R)-1-p-tolyl-propyl)-amide] had an inhibition at 5 µM of 85%.

As for `CC[C@H](NC(=O)c1cc(C(=O)N2CCC[C@@H]2C)n2c1COCC2)c1c(F)cc(C(F)(F)F)cc1F` [16cm, 6-((S)-2-Methyl-pyrrolidine-1-carbonyl)-3,4-dihydro-1H-pyrrolo[2,1-c][1,4]oxazine-8-carboxylic acid [(S)-1-(2,6-difluoro-4-trifluoromethyl-phenyl)-propyl]-amide], the inhibition at 5 µM turned out to be 85%.

The same assay, now with this note: human TASK-1 expressed in Xenopus oocytes, room temperature; read-out: IC50 value for TASK-1 inhibition.
On to `CC(C)[C@@H](NC(=O)c1cc(C(=O)N2CCC[C@@H]2C)n2c1COCC2)c1ccc(F)cc1` [16p, 6-((S)-2-Methyl-pyrrolidine-1-carbonyl)-3,4-dihydro-1H-pyrrolo[2,1-c][1,4]oxazine-8-carboxylic acid [(R)-1-(4-fluoro-phenyl)-2-methyl-propyl]-amide], for which the pIC50 (commonly the IC50 on a negative log10 scale, so that one unit is a factor of ten) is 6.42.

As to `CC[C@@H](NC(=O)c1cc(C(=O)N2CCC[C@@H]2C)n2c1COCC2)c1ncccc1Cl` [16pf], the pIC50 was 7.00.

With `CC[C@@H](NC(=O)c1cc(C(=O)N2CCC[C@@H]2CC(=O)OC(C)C)n2c1COCC2)c1ccccc1` [16fo, {(R)-1-[8-((R)-1-Phenyl-propylcarbamoyl)-3,4-dihydro-1H-pyrrolo[2,1-c][1,4]oxazine-6-carbonyl]-pyrrolidin-2-yl}-acetic acid isopropyl ester], the pIC50 is 6.64.

Turning to `CC[C@@H](NC(=O)c1cc(C(=O)NCC2CCOCC2)n2c1CCCC2)c1ccccc1` [16mq, 5,6,7,8-Tetrahydro-indolizine-1,3-dicarboxylic acid 1-[((R)-1-phenyl-propyl)-amide] 3-[(tetrahydro-pyran-4-ylmethyl)-amide]], the pIC50 is 6.51.

For the molecule `CC[C@@H](NC(=O)c1cc(C(=O)N2CCC[C@@H]2C)n2c1COCC2)c1cnc(C(F)(F)F)cc1Cl` [16br, 6-((S)-2-Methyl-pyrrolidine-1-carbonyl)-3,4-dihydro-1H-pyrrolo[2,1-c][1,4]oxazine-8-carboxylic acid [(R)-1-(4-chloro-6-trifluoromethyl-pyridin-3-yl)-propyl]-amide], the pIC50 is 6.06.

For `CC[C@@H](NC(=O)c1cc(C(=O)N2CCCC2C(C)C)n2c1COCC2)c1ccccc1` (stereo partly drawn) [16el, 6-(2-Isopropyl-pyrrolidine-1-carbonyl)-3,4-dihydro-1H-pyrrolo[2,1-c][1,4]oxazine-8-carboxylic acid ((R)-1-phenyl-propyl)-amide], the pIC50 is 6.42.

Take `CC(NC(=O)c1cc(C(=O)N[C@@H](c2ccc(F)cc2)C(C)C)n2c1COCC2)c1cnccn1` (single isomer, unassigned) [16lp]: the pIC50 is 6.26.

Consider `CC[C@@H](NC(=O)c1cc(C(=O)NCc2c(C)noc2C)c2n1CCOC2)c1ccccc1` [16jl, 3,4-Dihydro-1H-pyrrolo[2,1-c][1,4]oxazine-6,8-dicarboxylic acid 8-[(3,5-dimethyl-isoxazol-4-ylmethyl)-amide] 6-[((R)-1-phenyl-propyl)-amide]], for which the pIC50 was 5.49.

Regarding `C[C@H]1CCCN1C(=O)c1cc(C(=O)N[C@H]2CCc3nc(C(F)(F)F)ccc32)c2n1CCOC2` (racemic) [16cu, 6-((S)-2-Methyl-pyrrolidine-1-carbonyl)-3,4-dihydro-1H-pyrrolo[2,1-c][1,4]oxazine-8-carboxylic acid ((S)-2-trifluoromethyl-6,7-dihydro-5H-[1]pyrindin-5-yl)-amide], the pIC50 is 5.05.
